From publication PMC6713091, “Exploring new structural features of the 4-[(3-methyl-4-aryl-2,3-dihydro-1,3-thiazol-2-ylidene)amino]benzenesulphonamide scaffold for the inhibition of human carbonic anhydrases” (Journal of Enzyme Inhibition and Medicinal Chemistry, 2019)

Experiments:
[1] = molecular target: hCA I (Homo sapiens, UniProt P00915); experiment: Carbonic anhydrase inhibition assay, hCA I; assay type: biochemical
Description: (§1) The purification of cytosolic CA isoenzymes (CA I and CA II) was previously described with a simple one-step method by a Sepharose-4B-L tyrosine-sulphanilamide affinity chromatography.
(§2) The protein quantity in the column effluents was determined spectrophotometrically at 280 nm. Sodium dodecyl sulphate polyacrylamide gel electrophoresis (SDS-PAGE) was applied with a Bio-Rad Mini Gel system Mini-PROTEINVR system (Hercules, CA), Bio-Rad Laboratories, Inc., China after purification of both CA isoenzymes. Briefly, it was performed in acrylamide for the running (10%) and the stacking gel (3%) contained SDS (0.1%), respectively. Activities of CA isoenzymes were determined according to a method by Verporte et al.[57]. The increase in absorbance of the reaction medium was spectrophotometrically recorded at 348 nm. Also, the quantity of protein was determined at 595 nm according to the Bradford method. Bovine serum albumin was used as standard protein. The IC50 values were obtained from activity (%) versus compounds plots. For calculation of KI values, three different concentrations were used. The Lineweaver–Burk curves were drawn and calculations were realised.

[2] = molecular target: hCA II (Homo sapiens, UniProt P00918); experiment: Carbonic anhydrase inhibition assay, hCA II; assay type: biochemical
Description: as §1, §2

[3] = molecular target: hCA IX (Homo sapiens, UniProt Q16790); experiment: Carbonic anhydrase inhibition assay, hCA IX; assay type: biochemical
Description: as §2

[4] = molecular target: hCA XII (Homo sapiens, UniProt O43570); experiment: Carbonic anhydrase inhibition assay, hCA XII; assay type: biochemical
Description: as §2

Sequence of hCA XII (O43570 25-354): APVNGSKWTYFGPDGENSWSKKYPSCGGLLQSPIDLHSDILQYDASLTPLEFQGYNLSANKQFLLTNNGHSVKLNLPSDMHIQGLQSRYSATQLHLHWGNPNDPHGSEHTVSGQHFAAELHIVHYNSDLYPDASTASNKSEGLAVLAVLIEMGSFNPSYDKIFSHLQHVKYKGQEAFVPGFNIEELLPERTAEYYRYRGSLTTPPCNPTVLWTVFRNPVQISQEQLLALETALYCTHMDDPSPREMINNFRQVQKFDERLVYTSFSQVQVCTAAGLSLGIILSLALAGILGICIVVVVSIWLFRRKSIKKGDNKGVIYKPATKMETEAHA
Sequence of hCA I (P00915 whole entry): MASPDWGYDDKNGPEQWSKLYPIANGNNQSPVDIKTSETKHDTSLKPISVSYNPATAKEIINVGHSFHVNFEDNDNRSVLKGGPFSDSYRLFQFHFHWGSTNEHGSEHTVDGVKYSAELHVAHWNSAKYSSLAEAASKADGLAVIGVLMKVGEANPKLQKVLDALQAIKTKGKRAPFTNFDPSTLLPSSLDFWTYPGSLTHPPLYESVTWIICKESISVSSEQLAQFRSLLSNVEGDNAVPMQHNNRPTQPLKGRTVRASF

melting point [°C] | Structure (SMILES) | further results
241 to 242 | Cn1c(-c2ccc(Cl)cc2)cs/c1=N\c1ccc(S(N)(=O)=O)cc1 [EMAC8002b] | 
252 to 254 | Cc1ccc(-c2cs/c(=N\c3ccc(S(N)(=O)=O)cc3)n2C)cc1 [EMAC8002j] | 
243 to 244 | COc1ccc(-c2cs/c(=N\c3ccc(S(N)(=O)=O)cc3)n2C)cc1 [EMAC8002k] | 
256 to 257 | Cn1c(-c2ccc(Cl)cc2Cl)cs/c1=N\c1ccc(S(N)(=O)=O)cc1 [EMAC8002e] | 
254 to 255 | Cn1c(-c2ccc(-c3ccccc3)cc2)csc1=Nc1ccc(S(N)(=O)=O)cc1 [EMAC8002i] | Ki [1]: 8910 nM; Ki [2]: 503 nM; Ki [3]: 1390 nM; Ki [4]: 9.5 nM; selective index hCA II/hCA XII ([4]; ratio of Ki hCA II to Ki hCA XII): higher than 52
237 to 238 | Cn1c(-c2ccc(C#N)cc2)cs/c1=N\c1ccc(S(N)(=O)=O)cc1 [EMAC8002f] | 
239 to 240 | Cn1c(-c2ccc(F)cc2F)cs/c1=N\c1ccc(S(N)(=O)=O)cc1 [EMAC8002g] | 
235 to 236 | Cn1c(-c2cccc([N+](=O)[O-])c2)cs/c1=N\c1ccc(S(N)(=O)=O)cc1 [EMAC8002d] | 
244 to 245 | Cn1c(-c2ccc([N+](=O)[O-])cc2)cs/c1=N\c1ccc(S(N)(=O)=O)cc1 [EMAC8002h] | 
230 to 233 | Cn1c(-c2ccc(F)cc2)cs/c1=N\c1ccc(S(N)(=O)=O)cc1 [EMAC8002c] | 
252 to 253 | Cn1c(-c2ccccc2)cs/c1=N\c1ccc(S(N)(=O)=O)cc1 [EMAC8002m] | 
256 to 259 | Cn1c(-c2ccc(Br)cc2)cs/c1=N\c1ccc(S(N)(=O)=O)cc1 [EMAC8002a] | 
